Calls of active or inactive are those of the source. No cut-off for these calls is given here.
Tests used:
[1] = target: T1, Mannose-6-phosphate isomerase (Saccharomyces cerevisiae) (UniProt P29952); experiment: Competitive inhibition of Saccharomyces cerevisiae type I phosphomannose isomerase assessed as D-mannose 6-phosphate to D-fructose 6-phosphate isomerization at pH 7.1 by PGI/G6PDH coupled enzyme spectrophotometric assay
T1 sequence (whole entry): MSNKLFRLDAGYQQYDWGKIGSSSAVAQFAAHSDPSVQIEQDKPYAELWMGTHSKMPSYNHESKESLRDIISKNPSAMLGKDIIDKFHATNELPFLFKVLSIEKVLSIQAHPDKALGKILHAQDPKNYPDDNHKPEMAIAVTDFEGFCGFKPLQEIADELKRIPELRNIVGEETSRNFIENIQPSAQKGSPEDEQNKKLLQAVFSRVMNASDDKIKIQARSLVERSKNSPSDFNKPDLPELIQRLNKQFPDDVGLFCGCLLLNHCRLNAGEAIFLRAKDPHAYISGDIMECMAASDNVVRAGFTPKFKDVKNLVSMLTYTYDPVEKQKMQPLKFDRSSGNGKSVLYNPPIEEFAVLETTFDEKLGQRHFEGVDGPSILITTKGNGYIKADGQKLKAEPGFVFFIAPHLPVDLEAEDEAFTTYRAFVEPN

[2] = target: T2, Mannose-6-phosphate isomerase (Saccharomyces cerevisiae, UniProt P29952); experiment: Inhibition of Saccharomyces cerevisiae type I phosphomannose isomerase assessed as D-mannose 6-phosphate to D-fructose 6-phosphate isomerization at pH 7.1 by PGI/G6PDH coupled enzyme spectrophotometric assay
T2 sequence (P29952 whole entry): T1 sequence (whole entry)

[3] = target: T3, Mannose-6-phosphate isomerase (Escherichia coli (strain K12), UniProt P00946); experiment: Inhibition of Escherichia coli type I phosphomannose isomerase assessed as D-mannose 6-phosphate to D-fructose 6-phosphate isomerization at pH 7.1 by PGI/G6PDH coupled enzyme spectrophotometric assay
T3 sequence (P00946 whole entry): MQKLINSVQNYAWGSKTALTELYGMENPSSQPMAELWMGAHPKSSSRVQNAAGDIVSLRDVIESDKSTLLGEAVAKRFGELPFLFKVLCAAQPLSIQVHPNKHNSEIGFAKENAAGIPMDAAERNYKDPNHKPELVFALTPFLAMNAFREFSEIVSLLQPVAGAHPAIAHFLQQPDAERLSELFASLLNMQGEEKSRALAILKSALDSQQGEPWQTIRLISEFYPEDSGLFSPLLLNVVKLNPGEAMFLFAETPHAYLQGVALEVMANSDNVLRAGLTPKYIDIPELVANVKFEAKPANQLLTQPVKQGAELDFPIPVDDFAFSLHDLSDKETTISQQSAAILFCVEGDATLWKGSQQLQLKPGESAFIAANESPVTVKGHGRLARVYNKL

[4] = target: T4, Mannose-6-phosphate isomerase (Escherichia coli (strain K12)) (UniProt P00946); experiment: Competitive inhibition of Escherichia coli type I phosphomannose isomerase assessed as D-mannose 6-phosphate to D-fructose 6-phosphate isomerization at pH 7.1 by PGI/G6PDH coupled enzyme spectrophotometric assay
T4 sequence (whole entry): T3 sequence (P00946 whole entry)

Row | Compound | inhibition [1] | IC50 [2] [µM] | Ki [2] [µM] | IC50 [3] [µM] | Ki [3] [µM] | inhibition [4]
1 | O=C(O)C(C[C@H]1OC(O)[C@@H](O)[C@@H](O)[C@@H]1O)C(=O)O (some centres not stated) | Active | 18.1 | 10.5 | 199 | 115 | Active
2 | O=C(O)CC[C@H]1OC(O)[C@@H](O)[C@@H](O)[C@@H]1O (some centres not stated) |  | 900 |  | 4600 |  | 
3 | NNC(=O)[C@@H](O)[C@H](O)[C@H](O)CCP(=O)(O)O |  |  |  | > 3000 |  | 
4 | O=C(O)[C@@H](O)[C@H](O)[C@H](O)CP(=O)(O)O |  |  |  | > 3000 |  | 
5 | O=C(NO)[C@@H](O)[C@H](O)[C@H](O)CCP(=O)(O)O.ONO.ONO.ONO |  | 2200 |  | 370 |  | 

Reference: ChEMBL document CHEMBL1152637, “Synthesis and evaluation of non-hydrolyzable D-mannose 6-phosphate surrogates reveal 6-deoxy-6-dicarboxymethyl-D-mannose as a new strong inhibitor of phosphomannose isomerases” (Bioorg Med Chem, 2009)
